Laboratory results taken from PMC6943751 (The Journal of infectious diseases, 2014).

Tests used:
[1] = target: Neuraminidase (NA) of A/Taiwan/1/2013(H7N9) NA-WT (Influenza A virus, UniProt A0A024E3Q2); format: biochemical; details: read-out: IC50, nM ± SD
[2] = target: Neuraminidase (NA) of A/Washington/01/2007, NA-WT (Influenza A virus, UniProt A7UPN3); format: biochemical; details: read-out: IC50, nM ± SD

SMILES: CCC(CC)[C@H](NC(C)=O)[C@@H]1[C@H](O)[C@@H](C(=O)O)C[C@H]1N=C(N)N [Peramivir, peramivir]
- IC50 [1]: 0.08 ± 0.02 nM
- IC50 [2]: 0.23 ± 0.03 nM
